Results reported in patent US20240294543A1, “CYCLOHEPTA-THIENO-DIAZEPINE DERIVATIVES AS GABA A GAMMA1 PAM” (Hoffmann-La Roche Inc., priority 2021, published 2024).
Read-outs that look alike come from different tables or passages of the source.

What was measured:
[1] = target: human GABAA α2β2γ1 receptor (Homo sapiens (Human), UniProt P47869+Q8N1C3); experiment: Radioligand binding assay, competition for [3H]RO7239181, γ1-containing GABAA subtypes; conditions: Ki h-GABAA α2β2γ1, membranes of HEK293F cells, [3H]RO7239181 20-30 nM
Description: (§1) The affinity of compounds at GABAA γ1 subunit-containing receptors was measured by competition for [^3H]RO7239181 (67.3 Ci/mmol; Roche) binding to membranes from HEK293F cells (ThermoFisher R79007) expressing human (transiently transfected) receptors of composition α5β2γ1, α2β2γ1, α1β2γ1.
(§2) Harvested pellets from HEK293F cells expressing the different GABAA receptor subtypes were resuspended in Mannitol Buffer pH 7.2-7.4 (Mannitol 0.29 M, Triethylamine 10 mM, Acetic acid 10 mM, EDTA 1 mM plus protease inhibitors (20 tablets Complete, Roche Diagnostics Cat. No. 05 056 489 001 per liter)), washed two times and then resuspended at 1:10 to 1:15 dilution in the same buffer. Cell disruption was performed by stirring the suspension in a Parr vessel #4637 at 435 psi for 15 minutes, and then the suspensions were centrifuged at 1000×g for 15 minutes at 4° C. (Beckman Avanti J-HC; rotor JS-4.2). The supernatant (S1) was transferred in a 21 Schott flask and the pellet (P1) was resuspended with Mannitol Buffer up to 175 ml. The resuspended pellet was transferred into a 250 ml Corning centrifugal beaker and centrifuged at 1500×g for 10 minutes at 4° C. (Beckman Avanti J-HC; rotor JS-4.2). The supernatant (S1) was then transferred in the 21 Schott flask and the pellet was discarded. The supernatants (S1) were centrifuged in 500 ml Beckman polypropylene centrifugal beaker at 15'000×g for 30 minutes at 4° C. (Beckman Avanti J-20 XP; rotor JLA-10.500). The pellet (P2) was resuspended with Mannitol Buffer 1:1 and frozen at −80° C. The supernatant (S2) was centrifuged in 100 ml Beckman polypropylene centrifugal tubes at 48000×g for 50 minutes at 4° C. (Beckman Avanti J-20 XP; rotor JA-18). The supernatant (S3) was discarded and the pellet (P3) was resuspended with 1:1 Mannitol Buffer. The P2 and P3 protein concentration was determined with the BIORAD Standard assay method with bovine serum albumin as standard and measured on the NANO-Drop 1000. The membrane suspension was aliquots (500 μl per tube) and stored at −80° C. until required.
(§3) Membrane homogenates were resuspended and polytronised (Polytron PT1200E Kinematica AG) in Potassium Phosphate 10 mM, KCl 100 mM binding buffer at pH 7.4 to a final assay concentration determined with a previous experiment.
(§4) Assays were incubated to equilibrium for 1 hour at 4° C. and then, membranes were filtered onto unifilter (96-well white microplate with bonded GF/C filters preincubated 20-50 minutes in 0.3% Polyethylenimine) with a Filtermate 196 harvester (Packard BioScience) and washed 4 times with cold Potassium Phosphate 10 mM pH 7.4, KCl 100 mM binding buffer. After anhydrousing, filter-retained radioactivity was detected by liquid scintillation counting. Ki values were calculated using Excel-Fit (Microsoft) and are the means of two determinations.

[2] = target: human GABAA α1β2γ1 receptor (Homo sapiens (Human), UniProt P14867+Q8N1C3); experiment: as above; conditions: [3H]RO7239181 20-30 nM, Table 1
Description: as §1, §2, §3, §4

[3] = target: human GABAA α5β2γ1 receptor (Homo sapiens (Human), UniProt P31644+Q8N1C3); experiment: as above
Description: as §1, with “α1β2γ1. For better protein expression of the α2 subunit-containing receptors, the 28 amino acid long signal peptide (Met1 to Ala28) of the human GABAA α2 subunit was substituted by the 31 amino acid long signal peptide (Met1 to Ser31) of human GABAA α5 subunit.” for “α1β2γ1.”
as §2, §3
as §4, with “Radioligand binding assays were carried out in a volume of 200 μL (96-well plates) which contained 100 μL of cell membranes, [^3H]RO7239181 at a concentration of 1.5 nM (α5β2γ1) or 20-30 nM (α1β2γ1, α2β2γ1) and the test compound in the range of [0.3-10000]×10^−9 M. Nonspecific binding was defined by 10×10^−6 (α5β2γ1) and 30×10^−6 M RO7239181 and typically represented less than 5% (α5β2γ1) and less than 20% (α1β2γ1, α2β2γ1) of the total binding. Assays” for “Assays”

[4] = target: human GABAA α1β3γ2 receptor (Homo sapiens (Human), UniProt P14867+P18507); experiment: Radioligand binding assay, competition for [3H]Flumazenil, γ2-containing GABAA subtypes; conditions: for γ2/γ1 Selectivity Ratio: Ki α1β3γ2 (nM)/Ki α2β2γ1 (nM); for LogSel: Log[Ki α1β3γ2 (nM)/Ki α2β2γ1 (nM)]
Description: The affinity of compounds at GABAA γ2 subunit-containing receptors was measured by competition for [^3H]Flumazenil (81.1 Ci/mmol; Roche) binding to HEK293F cells expressing human (transiently transfected) receptors of composition α1β3γ2.
Harvested pellets from HEK293F cells expressing the different GABAA γ2 receptor subtypes were resuspended in Mannitol Buffer pH 7,2-7,4 and processed as described above for the cells expressing the GABAA γ1 subunit-containing receptors.
Assays were incubated to equilibrium for 1 hour at 4° C. and harvested onto GF/C uni-filters (Packard) by filtration using a Packard harvester and washing with ice-cold wash buffer (50 mM Tris; pH 7.5). After anhydrousing, filter-retained radioactivity was detected by liquid scintillation counting. Ki values were calculated using Excel-Fit (Microsoft) and are the means of two determinations.

[5] = Ki h-GABAA α1β2γ1, membranes of HEK293F cells
[6] = HEK293F cells, [3H]Flumazenil 1 nM, Table 1, read-out: Ki h-GABAA α1β3γ2

Q: With `Cc1nnc2n1-c1sc3c(c1C(c1c(F)cccc1F)=N[C@H]2C)CCC[C@@H](F)C3` (single isomer, unassigned) [Example 16] as the molecule, how does the Ki ([1]; Table 1) read?
A: 89.8 nM

Q: What about the Ki ([1]; Table 2) of the same molecule?
A: 89.8 nM

Q: What about the Ki [2, 5] of the same molecule?
A: 421 nM

Q: What about the Ki [3] of the same molecule?
A: 13.6 nM

Q: And the Ki [4]?
A: 1420 nM

Q: What about the “γ2/γ1 Selectivity Ratio” value ([4]; Table 1) of the same molecule?
A: 15.8

Q: And the LogSel ([4]; Table 1)?
A: 1.20

Q: `Cc1nnc2n1-c1sc3c(c1C(c1c(F)cccc1F)=N[C@H]2C)COCC[C@@H]3F` (single isomer, unassigned) [Example 55] was tested. Which Ki ([1]; Table 1) did it give?
A: 47.8 nM

Q: And the Ki ([1]; Table 2)?
A: 47.8 nM

Q: What about the Ki [3] of the same molecule?
A: 9 nM

Q: What about the Ki [4] of the same molecule?
A: 2690 nM

Q: And the “γ2/γ1 Selectivity Ratio” value ([4]; Table 1)?
A: 56.2

Q: And the LogSel ([4]; Table 1)?
A: 1.75

Q: With `Cc1nnc2n1-c1sc3c(c1C(c1c(F)cccc1F)=N[C@H]2C)CCCCC3F` (single isomer, unassigned) [Example 10] as the molecule, how does the Ki ([1]; Table 1) read?
A: 18.2 nM

Q: And the Ki ([1]; Table 2)?
A: 18.2 nM

Q: What about the Ki [3] of the same molecule?
A: 2.72 nM

Q: And the Ki [4]?
A: 1160 nM

Q: And the “γ2/γ1 Selectivity Ratio” value ([4]; Table 1)?
A: 63.6

Q: What about the LogSel ([4]; Table 1) of the same molecule?
A: 1.80

Q: How did the Ki ([1]; Table 1) turn out when `C[C@@H]1N=C(c2c(F)cccc2F)c2c(sc3c2COCCO3)-n2cc(C(=O)NCC(C)(C)O)nc21` [Example 59, (7S)-9-(2,6-difluorophenyl)-N-(2-hydroxy-2-methyl-propyl)-7-methyl-13,16-dioxa-18-thia-2,5,8-triazatetracyclo[8.8.0.02,6.011,17]octadeca-1(10),3,5,8,11(17)-pentaene-4-carboxamide] was run?
A: 8.9 nM

Q: And the Ki ([1]; Table 2)?
A: 8.9 nM

Q: What about the Ki [2, 5] of the same molecule?
A: 21.7 nM

Q: And the Ki [3]?
A: 2.27 nM

Q: What about the Ki [4, 6] of the same molecule?
A: 1270 nM

Q: And the “γ2/γ1 Selectivity Ratio” value ([4]; Table 1)?
A: 142.9

Q: What about the LogSel ([4]; Table 1) of the same molecule?
A: 2.16

Q: How did the Ki ([1]; Table 1) turn out when `[2H]C1([2H])OCc2c(sc3c2C(c2c(F)cccc2F)=N[C@@H](C)c2nc(C(=O)NCC)nn2-3)OC1([2H])[2H]` [Example 38, (7S)-14,14,15,15-tetradeuterio-9-(2,6-difluorophenyl)-N-ethyl-7-methyl-13,16-dioxa-18-thia-2,3,5,8-tetrazatetracyclo[8.8.0.02,6.011,17]octadeca-1(10),3,5,8,11(17)-pentaene-4-carboxamide] was run?
A: 17.9 nM

Q: And the Ki ([1]; Table 2)?
A: 17.9 nM

Q: What about the Ki ([2]; membranes of HEK293F cells, read-out: Ki h-GABAA α1β2γ1) of the same molecule?
A: 122 nM

Q: What about the Ki [3] of the same molecule?
A: 3.59 nM

Q: And the Ki [4, 6]?
A: 4030 nM

Q: What about the “γ2/γ1 Selectivity Ratio” value ([4]; Table 1) of the same molecule?
A: 224.3

Q: What about the LogSel ([4]; Table 1) of the same molecule?
A: 2.35

Q: How did the Ki ([1]; Table 1) turn out when `Cc1nnc2n1-c1sc3c(c1C(c1c(F)cccc1F)=NC2)CCOCC3` [Example 5, 9-(2,6-difluorophenyl)-3-methyl-14-oxa-18-thia-2,4,5,8-tetrazatetracyclo[8.8.0.02,6.011,17]octadeca-1(10),3,5,8,11(17)-pentaene] was run?
A: 63.5 nM

Q: And the Ki ([1]; Table 2)?
A: 63.5 nM

Q: And the Ki [2, 5]?
A: 246 nM

Q: What about the Ki [3] of the same molecule?
A: 10.5 nM

Q: What about the Ki [4] of the same molecule?
A: 1260 nM

Q: And the “γ2/γ1 Selectivity Ratio” value ([4]; Table 1)?
A: 19.8

Q: What about the LogSel ([4]; Table 1) of the same molecule?
A: 1.30

Q: Which results are given for `C[C@@H]1N=C(c2c(F)cccc2F)c2c(sc3c2CCCCC3)-n2c1n[nH]c2=O` [Example 6, (7S)-9-(2,6-difluorophenyl)-7-methyl-18-thia-2,4,5,8-tetrazatetracyclo[8.8.0.02,6.011,17]octadeca-1(10),5,8,11(17)-tetraen-3-one]?
A: Ki ([1]; Table 1): 37.3 nM; Ki ([1]; Table 2): 37.3 nM; Ki [3]: 3.69 nM; Ki [4]: 2440 nM; γ2/γ1 Selectivity Ratio ([4]; Table 1): 65.3; LogSel ([4]; Table 1): 1.82

Q: Which Ki ([1]; Table 1) does the source give for `C[C@@H]1N=C(c2c(F)cccc2F)c2c(sc3c2COCCC3)-n2nc(C(=O)NC[C@](C)(O)C(F)(F)F)nc21` [Example 69, (7S)-9-(2,6-difluorophenyl)-7-methyl-N-[(2S)-3,3,3-trifluoro-2-hydroxy-2-methyl-propyl]-13-oxa-18-thia-2,3,5,8-tetrazatetracyclo[8.8.0.02,6.011,17]octadeca-1(10),3,5,8,11(17)-pentaene-4-carboxamide] here?
A: 62 nM

Q: What about the Ki ([1]; Table 2) of the same molecule?
A: 62 nM

Q: What about the Ki [3] of the same molecule?
A: 7.8 nM

Q: What about the Ki [4, 6] of the same molecule?
A: 3700 nM

Q: And the “γ2/γ1 Selectivity Ratio” value ([4]; Table 1)?
A: 59.7

Q: What about the LogSel ([4]; Table 1) of the same molecule?
A: 1.78
